Reference: ChEMBL document CHEMBL3045111, “Synthesis and herbicidal activities of novel 3-(substituted benzyloxy or phenoxy)-6-methyl-4-(3-trifluoromethylphenyl)pyridazine derivatives” (2012)
The source made the active and inactive calls. No cut-off for these calls is given here.

Columns and labels:
[1] = test system: Brassica rapa subsp. oleifera; assay: Post-emergence herbicidal activity against one-leaf stage Brassica rapa subsp. oleifera under greenhouse condition assessed as complete bleaching of leaves at 600 g /ha measured after 24 days by spray method; format: functional, organism-based
[2] = test system: Brassica rapa subsp. oleifera; assay: Post-emergence herbicidal activity against one-leaf stage Brassica rapa subsp. oleifera under greenhouse condition at 75 g /ha measured after 24 days by spray method; format: functional; details: 576 h, read-out: GI
[3] = test system: Brassica rapa subsp. oleifera; assay: Post-emergence herbicidal activity against one-leaf stage Brassica rapa subsp. oleifera under greenhouse condition at 150 g /ha measured after 24 days by spray method; format: functional; details: 576 h, read-out: GI
[4] = test system: Brassica rapa subsp. oleifera; assay: Post-emergence herbicidal activity against one-leaf stage Brassica rapa subsp. oleifera under greenhouse condition at 300 g /ha measured after 24 days by spray method; format: functional; details: 576 h, read-out: GI
[5] = test system: Brassica rapa subsp. oleifera; assay: Post-emergence herbicidal activity against one-leaf stage Brassica rapa subsp. oleifera under greenhouse condition at 600 g /ha measured after 24 days by spray method; format: functional; details: 576 h, read-out: GI
[6] = test system: Digitaria; assay: Post-emergence herbicidal activity against one-leaf stage of Digitaria adscendens under greenhouse condition at 750 g /ha measured after 24 days by spray method; format: functional; details: in Digitaria adscendens, 576 h, read-out: GI
[7] = test system: Echinochloa crus-galli; assay: Post-emergence herbicidal activity against one-leaf stage of Echinochloa crus-galli (barnyard grass) under greenhouse condition at 750 g /ha measured after 24 days by spray method; format: functional; details: 576 h, read-out: GI
[8] = test system: Amaranthus retroflexus; assay: Post-emergence herbicidal activity against one-leaf stage of Amaranthus retroflexus under greenhouse condition at 750 g /ha measured after 24 days by spray method; format: functional; details: 576 h, read-out: GI
[9] = test system: Brassica rapa subsp. oleifera; assay: Post-emergence herbicidal activity against one-leaf stage Brassica rapa subsp. oleifera under greenhouse condition at 750 g /ha measured after 24 days by spray method; format: functional; details: 576 h, read-out: GI
[10] = test system: Digitaria; assay: Pre-emergence herbicidal activity against Digitaria adscendens under greenhouse condition at 750 g /ha measured after 24 days by spray method; format: functional; details: in Digitaria adscendens, 576 h, read-out: GI
[11] = test system: Echinochloa crus-galli; assay: Pre-emergence herbicidal activity against Echinochloa crus-galli (barnyard grass) under greenhouse condition at 750 g /ha measured after 24 days by spray method; format: functional; details: 576 h, read-out: GI
[12] = test system: Amaranthus retroflexus; assay: Pre-emergence herbicidal activity against Amaranthus retroflexus under greenhouse condition at 750 g /ha measured after 24 days by spray method; format: functional; details: 576 h, read-out: GI
[13] = test system: Brassica rapa subsp. oleifera; assay: Pre-emergence herbicidal activity against Brassica rapa subsp. oleifera under greenhouse condition at 750 g /ha measured after 24 days by spray method; format: functional; details: 576 h, read-out: GI
[14] = test system: Spirodela polyrhiza; assay: Bleaching herbicidal activity in Spirodela polyrhiza fronds cultured in compound-containing in medium assessed as chlorophyll inhibition at 1 ug/ml after 7 days; format: functional; details: 168 h
[15] = test system: Spirodela polyrhiza; assay: Bleaching herbicidal activity in Spirodela polyrhiza fronds cultured in compound-containing in medium assessed as chlorophyll inhibition at 10 ug/ml after 7 days; format: functional; details: 168 h
[16] = test system: Amaranthus retroflexus; assay: Post-emergence herbicidal activity against one-leaf stage Amaranthus retroflexus under greenhouse condition assessed as complete bleaching of leaves at 150 g /ha measured after 24 days by spray method; format: functional, organism-based
[17] = test system: Amaranthus retroflexus; assay: Post-emergence herbicidal activity against one-leaf stage Amaranthus retroflexus under greenhouse condition assessed as complete bleaching of leaves at 300 g /ha measured after 24 days by spray method; format: functional, organism-based
[18] = test system: Amaranthus retroflexus; assay: Post-emergence herbicidal activity against one-leaf stage Amaranthus retroflexus under greenhouse condition assessed as complete bleaching of leaves at 600 g /ha measured after 24 days by spray method; format: functional, organism-based
[19] = test system: Brassica rapa subsp. oleifera; assay: Post-emergence herbicidal activity against one-leaf stage Brassica rapa subsp. oleifera under greenhouse condition assessed as complete bleaching of leaves at 75 g /ha measured after 24 days by spray method; format: functional, organism-based
[20] = test system: Brassica rapa subsp. oleifera; assay: Post-emergence herbicidal activity against one-leaf stage Brassica rapa subsp. oleifera under greenhouse condition assessed as complete bleaching of leaves at 150 g /ha measured after 24 days by spray method; format: functional, organism-based
[21] = test system: Brassica rapa subsp. oleifera; assay: Post-emergence herbicidal activity against one-leaf stage Brassica rapa subsp. oleifera under greenhouse condition assessed as complete bleaching of leaves at 300 g /ha measured after 24 days by spray method; format: functional, organism-based
[22] = test system: Amaranthus retroflexus; assay: Post-emergence herbicidal activity against one-leaf stage Amaranthus retroflexus under greenhouse condition at 75 g /ha measured after 24 days by spray method; format: functional; details: 576 h, read-out: GI
[23] = test system: Amaranthus retroflexus; assay: Post-emergence herbicidal activity against one-leaf stage Amaranthus retroflexus under greenhouse condition at 150 g /ha measured after 24 days by spray method; format: functional; details: 576 h, read-out: GI
[24] = test system: Amaranthus retroflexus; assay: Post-emergence herbicidal activity against one-leaf stage Amaranthus retroflexus under greenhouse condition at 300 g /ha measured after 24 days by spray method; format: functional; details: 576 h, read-out: GI
[25] = test system: Amaranthus retroflexus; assay: Post-emergence herbicidal activity against one-leaf stage Amaranthus retroflexus under greenhouse condition at 600 g /ha measured after 24 days by spray method; format: functional; details: 576 h, read-out: GI

| Structure (SMILES) | Activity [1] | inhibition of growth at 75 g/ha [2] | inhibition of growth at 150 g/ha [3] | inhibition of growth at 300 g/ha [4] | inhibition of growth at 600 g/ha [5] | inhibition of growth at 750 g/ha [6] | inhibition of growth at 750 g/ha [7] | inhibition of growth at 750 g/ha [8] | inhibition of growth at 750 g/ha [9] | inhibition of growth at 750 g/ha [10] | inhibition of growth at 750 g/ha [11] | inhibition of growth at 750 g/ha [12] | inhibition of growth at 750 g/ha [13] | inhibition at 1 µg/mL [14] | inhibition at 10 µg/mL [15] | Activity [17] | Activity [18] | Activity [19] | Activity [20] | Activity [21] | other results |
| --- | --- | --- | --- | --- | --- | --- | --- | --- | --- | --- | --- | --- | --- | --- | --- | --- | --- | --- | --- | --- | --- |
| Cc1cccc(Oc2nnc(C)cc2-c2cccc(C(F)(F)F)c2)c1 | Active | 46% | 51% | 63% | 70% | 81% | 40% | 55% | 100% | 43% | 29% | 0% | 3% | 79% | 84% | Active | Active | Active | Active | Active | Activity [16]: Active; inhibition of growth at 75 g/ha [22]: 29%; inhibition of growth at 150 g/ha [23]: 34%; inhibition of growth at 300 g/ha [24]: 38%; inhibition of growth at 600 g/ha [25]: 43% |
| Cc1cc(-c2cccc(C(F)(F)F)c2)c(OCc2ccccc2C(F)(F)F)nn1 | Active |  | 38% | 49% | 92% | 8% | 14% | 46% | 93% | 2% | 17% | 16% | 28% | 73% | 76% |  |  |  | Active | Active |  |
| Cc1cc(-c2cccc(C(F)(F)F)c2)c(OCc2ccccc2C)nn1 | Active | 44% | 79% | 86% | 95% | 7% | 55% | 29% | 97% | 19% | 2% | 36% | 58% | 62% | 86% |  |  | Active | Active | Active |  |
| Cc1cc(-c2cccc(C(F)(F)F)c2)c(OCc2cccc(F)c2)nn1 | Active |  | 30% | 47% | 66% | 0% | 14% | 47% | 93% | 10% | 18% | 9% | 0% | 89% | 96% |  |  |  | Active | Active |  |
| Cc1cc(-c2cccc(C(F)(F)F)c2)c(Oc2cccc(C(F)(F)F)c2)nn1 | Active | 39% | 52% | 58% | 66% | 62% | 38% | 79% | 99% | 7% | 0% | 0% | 0% | 84% | 92% | Active | Active | Active | Active | Active | Activity [16]: Active; inhibition of growth at 75 g/ha [22]: 19%; inhibition of growth at 150 g/ha [23]: 49%; inhibition of growth at 300 g/ha [24]: 70%; inhibition of growth at 600 g/ha [25]: 94% |
| Cc1cc(-c2cccc(C(F)(F)F)c2)c(Oc2ccccc2Cl)nn1 | Active | 31% | 48% | 67% | 91% | 27% | 24% | 84% | 100% | 19% | 0% | 0% | 9% | 42% | 50% | Active | Active | Active | Active | Active | inhibition of growth at 75 g/ha [22]: 5%; inhibition of growth at 150 g/ha [23]: 20%; inhibition of growth at 300 g/ha [24]: 39%; inhibition of growth at 600 g/ha [25]: 65% |
